According to the supplement of paper PMC11061612:

Experiments:
Assay in all cases: combination Emax (second highest fraction inhibited in the dose matrix, 72 h); higher = more inhibition; extreme values may be limits of the assay
[1] = system: NCI-H1299 (Non-Small Cell Lung Carcinoma)
In short: (§1)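 After 24 hours at 37°C and 5% CO2 in 1536-well plates, cells in DMEM/F12 or RPMI plus 10% FBS received two-drug dose matrices for 72 hours. Viability came from CellTiter-Glo 2.0 luminescence and was scaled as inhibition, anchored at 0 by vehicle wells and at 1 by blank wells. Combination Emax is taken as the second-highest inhibition in the matrix, and Bliss excess as the observed combination effect less EA + EB − EA·EB, with EA and EB the single-agent effects.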

SK-N-FI (Neuroblastoma) = system: SK-N-FI (Neuroblastoma)
In short: as §1

[2] = system: NCI-H1793 (Lung Adenocarcinoma)
In short: as §1

CAL-78 (Chondrosarcoma) = system: CAL-78 (Chondrosarcoma)
In short: as §1

[3] = system: KARPAS-620 (Plasma Cell Myeloma)
In short: as §1

[4] = system: SUIT-2 (Pancreatic Carcinoma)
In short: as §1

[5] = system: MFH-ino (Other Solid Carcinomas)
In short: as §1

[6] = system: C3A (Hepatocellular Carcinoma)
In short: as §1

[7] = system: LU-99A (Non-Small Cell Lung Carcinoma)
In short: as §1

[8] = system: TE-5 (Esophageal Squamous Cell Carcinoma)
In short: as §1

[9] = system: EM-2 (Chronic Myelogenous Leukemia)
In short: as §1

[10] = system: LS-513 (Colorectal Carcinoma)
In short: as §1

[11] = system: DB (B-Cell Non-Hodgkin's Lymphoma)
In short: as §1

[12] = system: DOV13 (Ovarian Carcinoma)
In short: as §1

[13] = system: JiyoyeP-2003 (Burkitt's Lymphoma)
In short: as §1

[14] = system: MDA-MB-231 (Breast Carcinoma)
In short: as §1

SN12C (Kidney Carcinoma) = system: SN12C (Kidney Carcinoma)
In short: as §1

DSH1 (Bladder Carcinoma) = system: DSH1 (Bladder Carcinoma)
In short: as §1

J82 (Bladder Carcinoma) = system: J82 (Bladder Carcinoma)
In short: as §1

[15] = system: 697 (B-Lymphoblastic Leukemia)
In short: as §1

| Structure (SMILES) | combination Emax [1] | combination Emax (SK-N-FI (Neuroblastoma)) | combination Emax [2] | combination Emax (CAL-78 (Chondrosarcoma)) | combination Emax [3] | combination Emax [4] | combination Emax [5] | combination Emax [6] | combination Emax [7] | combination Emax [8] | combination Emax [9] | combination Emax [10] | combination Emax [11] | combination Emax [12] | combination Emax [13] | combination Emax [14] | combination Emax (SN12C (Kidney Carcinoma)) | combination Emax (DSH1 (Bladder Carcinoma)) | combination Emax (J82 (Bladder Carcinoma)) | combination Emax [15] |
| --- | --- | --- | --- | --- | --- | --- | --- | --- | --- | --- | --- | --- | --- | --- | --- | --- | --- | --- | --- | --- |
| Cn1cnc2c(F)c(Nc3ccc(Br)cc3Cl)c(C(=O)NOCCO)cc21 [Selumetinib] + CC(C)n1c(=O)n(C)c2cnc3cc(F)c(-c4ccc(OCCCN5CCCCC5)nc4)cc3c21 [AZD1390] (first compound max 10 µM, 7x7, partner max 0.3 µM) | 0.23 | 0.435 | 0.218 | 0.136 | 0.472 | 0.284 | 0.281 | 0.412 | 0.358 | 0.137 | 0.545 | 0.858 | 0.304 | 0.124 | 0.191 | 0.501 | 0.237 | 0.323 | 0.787 | 0.373 |
| NC1(C(=O)N[C@@H](CCO)c2ccc(Cl)cc2)CCN(c2ncnc3[nH]ccc23)CC1 [Capivasertib] + C[C@@H]1COCCN1C2=NC(=NC(=C2)C3(CC3)[S@](=N)(=O)C)C4=C5C=CNC5=NC=C4 [AZD6738] (first compound max 10 µM, 7x7, partner max 10 µM) | 0.602 | 0.705 | 0.543 | 0.663 | 0.757 | 0.493 | 0.602 | 0.551 | 0.63 | 0.721 | 0.973 | 0.794 | 0.424 | 0.925 | 0.93 | 0.74 | 0.261 | 0.848 | 0.65 | 1 |
| COc1cc2ncnc(Nc3ccc(F)c(Cl)c3)c2cc1OCCCN1CCOCC1 [Gefitinib] + CC(C)n1c(=O)n(C)c2cnc3cc(F)c(-c4ccc(OCCCN5CCCCC5)nc4)cc3c21 [AZD1390] (first compound max 10 µM, 7x7, partner max 0.3 µM) | 0.0669 | 0.175 | 0.143 | 0.194 | 0.141 | 0.111 | 0 | 0.377 | 0.154 | 0.15 | 0.174 | 0.354 | 0.328 | 0.168 | 0.119 | 0.193 | 0.21 | 0.858 | 0.139 | 0.422 |
| CC(=O)Nc1cccc(-n2c(=O)n(C3CC3)c(=O)c3c(Nc4ccc(I)cc4F)n(C)c(=O)c(C)c32)c1 [Trametinib] + Cc1nc(-c2cn3c(n2)-c2ccc(-c4cnn(C(C)(C)C(N)=O)c4)cc2OCC3)n(C(C)C)n1 [Taselisib] (first compound max 1 µM, 7x7, partner max 10 µM) | 0.68 | 0.954 | 0.778 | 0.512 | 1 | 0.702 | 0.583 | 0.903 | 0.984 | 0.767 | 0.935 | 1 | 0.212 | 0.76 | 0.544 | 0.868 | 0.45 | 0.994 | 0.593 | 0.653 |
| CN(CCO)CC[C@H](CSc1ccccc1)Nc1ccc(S(=O)(=O)NC(=O)c2ccc(N3CCC([C@@H](O)c4ccccc4-c4ccc(Cl)cc4)CC3)cc2)cc1S(=O)(=O)C(F)(F)F [AZD4320] + CCN(CCO)CCCOc1ccc2c(Nc3cc(CC(=O)Nc4cccc(F)c4)[nH]n3)ncnc2c1 [AZD2811] (first compound max 1 µM, 7x7, partner max 1 µM) | 0.228 | 0.206 | 0.283 | 0.703 | 1 | 0.089 | 0.102 | 0.22 | 0.701 | 0.478 | 0.985 | 0.414 | 0.891 | 0.908 | 0.827 | 0.813 | 0.169 | 0.819 | 0.126 | 1 |
| COc1cccc(OCCCN)c1-c1cc(Nc2cnc(C#N)cn2)n[nH]1 [Prexasertib] + Cc1cc2ncnn2cc1Nc1ncc2c(n1)n(C1CCOCC1)c(=O)n2C [AZD7648] (first compound max 1 µM, 7x7, partner max 10 µM) | 0.711 | 0.915 | 0.432 | 0.586 | 0.817 | 0.739 | 0.464 | 0.611 | 0.804 | 0.526 | 0.99 | 0.848 | 0.766 | 0.914 | 0.984 | 0.696 | 0.387 | 0.768 | 0.377 | 1 |
